Test results reported in the supplement of paper PMC10627819.

Assays:
S. aureus DSM 20231 [1] = experiment: fitness (endpoint OD595 vs no drug) (fraction); higher = more growth
Method in brief: (§1)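 Fitness compares growth at the stationary-phase transition with the robust mean of no-drug control wells, as a ratio of optical densities. The ratio is capped at 1. Wells of 384-well plates held 30 µl, or 55 µl for S. pneumoniae, inoculated at OD595 0.01. Readings at OD595 every 30 min for 14 h at 37 °C were corrected against the first reading.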

S. aureus Newman [2] = experiment: as above
Method in brief: as §1

S. pneumoniae D39V [3] = experiment: as above
Method in brief: as §1

B. subtilis 168 = experiment: Bliss interaction score (quartile over a dose matrix) (fitness difference); higher = more antagonism (negative = synergy)
Method in brief: (§2)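 Each OD595 reading at entry into stationary phase was scaled to the robust mean of the untreated wells on its plate, with a ceiling of 1. These ratios define fitness, and single-drug fitness was inferred from combinations. The Bliss score compares observed fitness with the product-based expectation and is reported as quartiles across all replicate types, technical, biological and donor/recipient.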

S. aureus DSM 20231 [4] = experiment: as above
Method in brief: as §2

S. aureus Newman [5] = experiment: as above
Method in brief: as §2

S. pneumoniae D39V [6] = experiment: as above
Method in brief: as §2
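For Bliss interaction score (quartile over a dose matrix) in this document: first quartile when negative (synergy) and third quartile when positive (antagonism).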
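For fitness (endpoint OD595 vs no drug) in this document: OD595 on entry to stationary phase over no-drug wells; at most 1.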

CO/N=C(\C(=O)N[C@@H]1C(=O)N2C(C(=O)[O-])=C(C[N+]3(C)CCCC3)CS[C@H]12)c1csc(N)n1 [Cefepime] + C[C@@H]1O[C@@H]1P(=O)(O)O [Fosfomycin]
Conditions	fitness
S. aureus DSM 20231 [1], first compound 0.125 µg/mL, partner 0.781 µg/mL	0.649
S. aureus DSM 20231 [1], first compound 0.125 µg/mL, partner 1.562 µg/mL	0.503
S. aureus DSM 20231 [1], first compound 0.125 µg/mL, partner 3.124 µg/mL	0.456
S. aureus DSM 20231 [1], first compound 0.25 µg/mL, partner 0.781 µg/mL	0.633
S. aureus DSM 20231 [1], first compound 0.25 µg/mL, partner 1.562 µg/mL	0.512
S. aureus DSM 20231 [1], first compound 0.25 µg/mL, partner 3.124 µg/mL	0.488
S. aureus DSM 20231 [1], first compound 0.5 µg/mL, partner 0.781 µg/mL	0.67
S. aureus DSM 20231 [1], first compound 0.5 µg/mL, partner 1.562 µg/mL	0.559
S. aureus DSM 20231 [1], first compound 0.5 µg/mL, partner 3.124 µg/mL	0.539
S. aureus Newman [2], first compound 0.125 µg/mL, partner 0.781 µg/mL	0.691
S. aureus Newman [2], first compound 0.125 µg/mL, partner 1.562 µg/mL	0.599
S. aureus Newman [2], first compound 0.125 µg/mL, partner 3.124 µg/mL	0.301
S. aureus Newman [2], first compound 0.25 µg/mL, partner 0.781 µg/mL	0.653
S. aureus Newman [2], first compound 0.25 µg/mL, partner 1.562 µg/mL	0.587
S. aureus Newman [2], first compound 0.25 µg/mL, partner 3.124 µg/mL	0.305
S. aureus Newman [2], first compound 0.5 µg/mL, partner 0.781 µg/mL	0.659
S. aureus Newman [2], first compound 0.5 µg/mL, partner 1.562 µg/mL	0.568
S. aureus Newman [2], first compound 0.5 µg/mL, partner 3.124 µg/mL	0.276
S. pneumoniae D39V [3], first compound 0.007 µg/mL, partner 1.25 µg/mL	0.966
S. pneumoniae D39V [3], first compound 0.007 µg/mL, partner 2.5 µg/mL	0.911
S. pneumoniae D39V [3], first compound 0.007 µg/mL, partner 5 µg/mL	0.677
S. pneumoniae D39V [3], first compound 0.0078 µg/mL, partner 1.25 µg/mL	0.987
S. pneumoniae D39V [3], first compound 0.0078 µg/mL, partner 2.5 µg/mL	0.957
S. pneumoniae D39V [3], first compound 0.0078 µg/mL, partner 5 µg/mL	0.755
S. pneumoniae D39V [3], first compound 0.014 µg/mL, partner 1.25 µg/mL	0.984
S. pneumoniae D39V [3], first compound 0.014 µg/mL, partner 2.5 µg/mL	0.889
S. pneumoniae D39V [3], first compound 0.014 µg/mL, partner 5 µg/mL	0.62
S. pneumoniae D39V [3], first compound 0.0155 µg/mL, partner 1.25 µg/mL	0.962
S. pneumoniae D39V [3], first compound 0.0155 µg/mL, partner 2.5 µg/mL	0.932
S. pneumoniae D39V [3], first compound 0.0155 µg/mL, partner 5 µg/mL	0.633
S. pneumoniae D39V [3], first compound 0.028 µg/mL, partner 1.25 µg/mL	0.844
S. pneumoniae D39V [3], first compound 0.028 µg/mL, partner 2.5 µg/mL	0.707
S. pneumoniae D39V [3], first compound 0.028 µg/mL, partner 5 µg/mL	0.273
S. pneumoniae D39V [3], first compound 0.031 µg/mL, partner 1.25 µg/mL	0.789

Conditions	Bliss interaction score
B. subtilis 168	-0.0571
S. aureus DSM 20231 [4]	-0.0913
S. aureus Newman [5]	0.16
S. pneumoniae D39V [6]	-0.0837

CO/N=C(\C(=O)N[C@@H]1C(=O)N2C(C(=O)[O-])=C(C[N+]3(C)CCCC3)CS[C@H]12)c1csc(N)n1 [Cefepime] + C[n+]1ccc(-c2cc[n+](C)cc2)cc1 [Paraquat]
Conditions	fitness
S. aureus DSM 20231 [1], first compound 0.125 µg/mL, partner 1.25 µg/mL	0.9
S. aureus DSM 20231 [1], first compound 0.125 µg/mL, partner 2.5 µg/mL	0.888
S. aureus DSM 20231 [1], first compound 0.125 µg/mL, partner 5 µg/mL	0.874
S. aureus DSM 20231 [1], first compound 0.25 µg/mL, partner 1.25 µg/mL	0.889
S. aureus DSM 20231 [1], first compound 0.25 µg/mL, partner 2.5 µg/mL	0.876
S. aureus DSM 20231 [1], first compound 0.25 µg/mL, partner 5 µg/mL	0.821
S. aureus DSM 20231 [1], first compound 0.5 µg/mL, partner 2.5 µg/mL	0.853
S. aureus DSM 20231 [1], first compound 0.5 µg/mL, partner 5 µg/mL	0.837
S. aureus Newman [2], first compound 0.125 µg/mL, partner 1.25 µg/mL	0.901
S. aureus Newman [2], first compound 0.125 µg/mL, partner 2.5 µg/mL	0.916
S. aureus Newman [2], first compound 0.125 µg/mL, partner 5 µg/mL	0.898
S. aureus Newman [2], first compound 0.25 µg/mL, partner 1.25 µg/mL	0.851
S. aureus Newman [2], first compound 0.25 µg/mL, partner 2.5 µg/mL	0.854
S. aureus Newman [2], first compound 0.25 µg/mL, partner 5 µg/mL	0.846
S. aureus Newman [2], first compound 0.5 µg/mL, partner 1.25 µg/mL	0.768
S. aureus Newman [2], first compound 0.5 µg/mL, partner 2.5 µg/mL	0.773
S. aureus Newman [2], first compound 0.5 µg/mL, partner 5 µg/mL	0.839
S. pneumoniae D39V [3], first compound 0.007 µg/mL, partner 1.5 µg/mL	0.99
S. pneumoniae D39V [3], first compound 0.007 µg/mL, partner 3 µg/mL	0.996
S. pneumoniae D39V [3], first compound 0.007 µg/mL, partner 6 µg/mL	0.971
S. pneumoniae D39V [3], first compound 0.014 µg/mL, partner 1.5 µg/mL	≥ 1
S. pneumoniae D39V [3], first compound 0.014 µg/mL, partner 3 µg/mL	≥ 1
S. pneumoniae D39V [3], first compound 0.014 µg/mL, partner 6 µg/mL	≥ 1
S. pneumoniae D39V [3], first compound 0.028 µg/mL, partner 1.5 µg/mL	0.934
S. pneumoniae D39V [3], first compound 0.028 µg/mL, partner 3 µg/mL	0.917
S. pneumoniae D39V [3], first compound 0.028 µg/mL, partner 6 µg/mL	0.869

fitness, S. pneumoniae D39V [3], one replicate
Conditions	first compound 0.0078 µg/mL	first compound 0.0155 µg/mL	first compound 0.031 µg/mL
partner 1.5 µg/mL	0.994	0.985	0.957
partner 3 µg/mL	≥ 1	≥ 1	0.975
partner 6 µg/mL	≥ 1	≥ 1	≥ 1

Conditions	Bliss interaction score
B. subtilis 168	-0.121
S. aureus DSM 20231 [4]	-0.0615
S. aureus Newman [5]	0.0489
S. pneumoniae D39V [6]	0.0315
